In US9193731B2, “Antimicrobial compounds and methods of making and using the same” (Melinta Therapeutics, Inc., priority 2009, dated 2015):

Test system: Escherichia coli strain ATCC25922
Assay: standard microdilution assay to determine minimum inhibitory concentrations (MICs)
Format: cell-based
Conditions: Escherichia coli strain ATCC25922, microdilution
Procedure: Minimum inhibitory concentrations (MICs) are determined by the microdilution method, typically in a final volume of 100 microliters, according to protocols outlined by The Clinical and Laboratory Standards Institute [CLSI; formerly the National Committee for Clinical Laboratory Standards (NCCLS)]. See CLSI: Methods for dilution antimicrobial susceptibility tests for bacteria that grow aerobically; approved standard-fifth edition. Wayne, Pa.: NCCLS; 2000. The assays can be also be performed in microtiter trays according to conventional methodologies as published by the CLSI. See CLSI. Methods for Dilution Antimicrobial Susceptibility Tests for Bacteria That Grow Aerobically; Approved Standard—Seventh Edition. CLSI Document M7-A7 [ISBN 1-56238-587-9] CLSI, 940 West Valley Road, Suite 1400, Wayne Pa. 19087-1898 USA, 2006).
The compounds of the present invention were tested for antimicrobial activity. The compounds were run against Escherichia coli strain ATCC25922 using a standard microdilution assay to determine minimum inhibitory concentrations (MICs). […] A “N/A” means that data is unavailable. It will be recognized by one skilled in the art that the compounds can be assessed against other bacterial organisms and that the presentation of data for activity against Escherichia coli is illustrative and in no way is intended to limit the scope of the present invention. The compounds of the present invention can be assayed against a range of other microorganisms depending upon the performance activity desired to be gathered. Furthermore, the “+”, “−”, and “N/A” representation and the selection of a cutoff value of 16 micrograms/ml is also illustrative and in no way is intended to limit the scope of the present invention.

Compound | E. coli ATCC25922 MIC
N=C(N)NCCCNCc1ccc(-n2cc3cc(-c4ccc(S(=O)(=O)N(CC5CCOCC5)C5CCCNC5)cc4)[nH]c3nc2=O)cc1 (single isomer, unassigned) [Compound 845] | + (a “+” indicates that the compound has an MIC value of 16 micrograms/ml or less)
N=C(N)NCCCNCc1ccc(-n2cc3cc(-c4cc(CCN)cc(OCC(F)CN)c4)[nH]c3nc2=O)cc1 (stereo not shown) [Compound 2011a] | + (a “+” indicates that the compound has an MIC value of 16 micrograms/ml or less)
CN(Cc1cccc(F)c1)C(=O)c1cc(-c2cc3cn(-c4ccc(CNCCCNC(=N)N)cc4)c(=O)nc3[nH]2)cc(N2CCNCC2)c1 [Compound 957] | + (a “+” indicates that the compound has an MIC value of 16 micrograms/ml or less)
N=C(N)NCCCNCc1ccc(-n2cc3cc(-c4ccc(S(=O)(=O)C[C@@H](O)CN5CCCCC5)cc4)[nH]c3nc2=O)cc1 [Compound 1171] | + (a “+” indicates that the compound has an MIC value of 16 micrograms/ml or less)
N=C(N)N[C@@H]1CCN(Cc2ccc(-n3cc4cc(-c5ccc(S(=O)(=O)N(CCCN6CCS(=O)(=O)CC6)C6CCNCC6)cc5)[nH]c4nc3=O)cc2)C1 [Compound 1222] | − (a “−” indicates that the compound has an MIC value greater than 16 micrograms/ml)
CN1CCN(CCOc2cc(-n3cc4cc(-c5ccc(S(=O)(=O)NC6CCNCC6)cc5)[nH]c4nc3=O)ccc2C(=O)NCCCNC(=N)N)CC1 [Compound 1152] | − (a “−” indicates that the compound has an MIC value greater than 16 micrograms/ml)
N=C(N)NCCCNCc1ccc(-n2cc3cc(-c4cc(F)cc(CCCCN)c4)[nH]c3nc2=O)cc1 [Compound 2085a] | + (a “+” indicates that the compound has an MIC value of 16 micrograms/ml or less)
CC1CN(C(=O)c2ccc(-c3cn4cc(-c5ccc(CNCCCN)cc5)c(=O)nc4[nH]3)cc2)CC(C)N1 (stereo not shown) [Compound 819] | + (a “+” indicates that the compound has an MIC value of 16 micrograms/ml or less)
CSCc1cc(CCCCN)cc(-c2cc3cn(-c4ccc(CNCCCNC(=N)N)cc4)c(=O)nc3[nH]2)c1 [Compound 2083a] | + (a “+” indicates that the compound has an MIC value of 16 micrograms/ml or less)
N=C(N)NCCCNCc1ccc(-n2cc3cc(-c4cc(OC(F)(F)F)cc(C(O)CCN)c4)[nH]c3nc2=O)cc1 (stereo not shown) [Compound 2061a] | + (a “+” indicates that the compound has an MIC value of 16 micrograms/ml or less)
N=C(N)NCCCNCc1ccc(-n2cc3cc(-c4cc(OCC(F)CN)cc(-c5cccnc5)c4)[nH]c3nc2=O)cc1 (stereo not shown) [Compound 2001a] | − (a “−” indicates that the compound has an MIC value greater than 16 micrograms/ml)
N=C(N)NCCCNCc1ccc(-n2cc3cc(-c4cccc(S(=O)(=O)N(CCN5CCCCC5)C5CCNCC5)c4)[nH]c3nc2=O)cc1 [Compound 1077] | + (a “+” indicates that the compound has an MIC value of 16 micrograms/ml or less)
NCCCNCc1ccc(-n2cc3cc(-c4ccc(S(=O)(=O)N(CC5COCCO5)C5CCCNC5)cc4)[nH]c3nc2=O)cc1 (stereo not shown) [Compound 846] | + (a “+” indicates that the compound has an MIC value of 16 micrograms/ml or less)
N=C(N)NCCCNS(=O)(=O)c1ccc(-n2cc3cc(-c4ccc(S(=O)(=O)NC5CCNCC5)cc4)[nH]c3nc2=O)cc1 [Compound 1103] | + (a “+” indicates that the compound has an MIC value of 16 micrograms/ml or less)
N=C(N)NCCCNCc1ccc(-n2cc3cc(CCS(=O)(=O)N(CCC4CCCN4)C4CCNCC4)[nH]c3nc2=O)cc1 (stereo not shown) [Compound 991] | + (a “+” indicates that the compound has an MIC value of 16 micrograms/ml or less)
N=C(N)NCCCNCc1ccc(-c2cn3cc(-c4ccc(C(=O)N5CCC(N)CC5)cc4)[nH]c3nc2=O)cc1 [Compound 808] | + (a “+” indicates that the compound has an MIC value of 16 micrograms/ml or less)
N=C(N)NCCCNCc1ccc(-n2cc3cc(-c4cc(CCCN)cc(OC(F)(F)F)c4)[nH]c3nc2=O)cc1 [Compound 2058a] | + (a “+” indicates that the compound has an MIC value of 16 micrograms/ml or less)
NC(N)=NCCCNCc1ccc(-n2cc3cc(-c4ccc(S(=O)(=O)NC5CCNCC5)cc4)oc3nc2=O)cc1 [Compound 1242] | + (a “+” indicates that the compound has an MIC value of 16 micrograms/ml or less)
N=C(N)NCCCNCc1ccc(-n2cc3cc(-c4cccc(CCCN)c4)[nH]c3nc2=O)cc1 [Compound 1446] | + (a “+” indicates that the compound has an MIC value of 16 micrograms/ml or less)
N#Cc1cc(CCCCN)cc(-c2cc3cn(-c4ccc(CNCCCNC(=N)N)cc4)c(=O)nc3[nH]2)c1 [Compound 2084a] | + (a “+” indicates that the compound has an MIC value of 16 micrograms/ml or less)
N=C(N)NCCCN1CC=C(n2cc3cc(-c4ccc(S(=O)(=O)N(Cc5ccc6nonc6c5)C5CCNCC5)cc4)[nH]c3nc2=O)CC1 [Compound 1004] | + (a “+” indicates that the compound has an MIC value of 16 micrograms/ml or less)
N=C(N)NCCCNCc1ccc(-n2cc3cc(-c4ccc(F)c(CCCCN)c4)[nH]c3nc2=O)cc1 [Compound 2071a] | + (a “+” indicates that the compound has an MIC value of 16 micrograms/ml or less)
CN(Cc1cccc(F)c1)Cc1cc(-c2cc3cn(-c4ccc(CNCCCNC(=N)N)cc4)c(=O)nc3[nH]2)cc(N2CCNCC2)c1 [Compound 1049] | + (a “+” indicates that the compound has an MIC value of 16 micrograms/ml or less)
NC(N)=NCCC(=O)NCc1ccc(-n2cc3cc(-c4ccc(S(=O)(=O)N(CCOc5ccc(F)cc5)C5CCNCC5)cc4)[nH]c3nc2=O)cc1 [Compound 1196] | − (a “−” indicates that the compound has an MIC value greater than 16 micrograms/ml)
N=C(N)NCCCNCc1ccc(-n2cc3cc(-c4ccc(S(=O)(=O)N(Cc5ccc6nonc6c5)C5CCNCC5)cc4)[nH]c3nc2=O)cc1 [Compound 769] | + (a “+” indicates that the compound has an MIC value of 16 micrograms/ml or less)
N=C(N)NCCCNCc1ccc(-n2cc3cc(-c4cc(CCCCN)cc(SC(F)(F)F)c4)[nH]c3nc2=O)cc1 [Compound 2046a] | + (a “+” indicates that the compound has an MIC value of 16 micrograms/ml or less)

Same assay, conditions: Escherichia coli, ATCC25922, Escherichia coli strain ATCC25922, microdilution; read-out: E. coli ATCC25922 MIC

Compound | MIC [µg/mL]
N=C(N)NCCCNCc1ccc(-c2cn3cc(-c4ccc(C(=O)N5CCN(c6ncccn6)CC5)cc4)[nH]c3nc2=O)cc1 [Compound 721] | > 16
NCc1ccc(-n2cc3cc[nH]c3nc2=O)cc1 [Compound 142] | > 16
N=C(N)NCCCNCc1ccc(-n2cc3cc(CCNC4CCNCC4)[nH]c3nc2=O)cc1 [Compound 719] | < 16
NCCCNC(=O)CCn1cc2cc(-c3ccc(S(=O)(=O)N[C@@H]4CCCNC4)cc3)[nH]c2nc1=O [Compound 1287] | > 16
N=C(N)NCCCNCc1ccc(-c2cn3cc(-c4ccc(S(=O)(=O)N5CCOCC5)cc4)[nH]c3nc2=O)cc1 [Compound 762] | > 16
NCCCNCc1ccc(-n2cc3cc(-c4ccc(C[C@H](N)CO)cc4)[nH]c3nc2=O)cc1 [Compound 867] | < 16
N=C(N)NCCCOCc1ccc(-c2cn3cc(-c4ccc(Br)cc4)[nH]c3nc2=O)cc1 [Compound 901] | > 16
COC(=O)C(N)Cc1cc2cn(-c3ccc(CN(CCCN)CCCN)cc3)c(=O)nc2[nH]1 (stereo not shown) [Compound 169] | > 16
N=C(N)NCCCNCc1ccc(-c2cn3cc(-c4ccc(C(=O)N5CCN(c6ccc(F)cc6)CC5)cc4)[nH]c3nc2=O)cc1 [Compound 670] | > 16
O=c1nc2[nH]c3ccccc3c2cn1C1CNC1 [Compound 591] | > 16
NCCCOCc1ccc(-c2cn3cc(-c4ccc(Br)cc4)[nH]c3nc2=O)cc1 [Compound 902] | > 16
N=C(N)NCCCNCc1ccc(C2N=c3cc(-c4cccc(O)c4)[nH]c3=NC2=O)cc1 (stereo not shown) [Compound 1334] | < 16
O=c1nc2[nH]c(-c3ccc(S(=O)(=O)NC4CCNCC4)cc3F)cc2cn1-c1ccc(CNCCCF)c(F)c1 [Compound 279] | > 16
N=C(N)NCCCNCc1ccc(-n2cc3cc(-c4cccc(NCC(=O)N5CCOCC5)c4)[nH]c3nc2=O)cc1 [Compound 637] | > 16
NCCCN(CCCN)Cc1ccc(-n2cc3cc(-c4ccc(C(=O)N[C@H]5CC[C@H](O)CC5)cc4)[nH]c3nc2=O)cc1 [Compound 192] | > 16
N=C(N)NCCCNCc1ccc(-n2cc3cc(-c4ccccc4OCCCN4CCNCC4)[nH]c3nc2=O)cc1 [Compound 1166] | > 16
NCCCNCc1ccc(-c2cn3cc(-c4ccc(C(=O)N5CC[C@@H](F)C5)cc4)[nH]c3nc2=O)cc1 [Compound 668] | > 16
NCCCNCc1ccc(-n2cc3cc(CCC(=O)N4CC[C@H](F)C4)[nH]c3nc2=O)cc1 [Compound 298] | > 16
CCOCc1cc2cn(-c3ccc(CNCCCN)cc3)c(=O)nc2[nH]1 [Compound 764] | > 16
N=C(N)NCCCNCc1ccc(-c2cn3cc(C(=O)Nc4ccc(F)cc4)[nH]c3nc2=O)cc1 [Compound 965] | > 16
